One may read the inhibition as the drop in the measured response relative to a control, in per cent.

The results in this text go back to US8258119B2, “Anti-cancer drugs and uses relating thereto for metastatic malignant melanoma and other cancers” (Kasina Laila Innova Pharmaceuticals, priority 2008, dated 2012).

Common to all, as to assay type: cell-based
In assay [1] the test system is A2058, human malignant melanoma cells. Nature of the assay: MTT cell proliferation assay in A2058 cells. The following applies: A2058, 72 h, three days exposure. The method, then:
(§1) MTT [3-(4,5-dimethylthiazol-2-yl)-2,5-diphenyltetrazolium bromide] incorporation based cell proliferation assay was performed using standard procedure with some modifications (38). The cytotoxic efficacy of the test compounds were evaluated in human malignant melanoma A2058 cells by MTT cell proliferation assay kit (Roche Applied Sciences, Germany). The assay was carried out according to the instruction provided by the vendor. Briefly, equal numbers of cells was plated in 96-well flat-bottomed plates in 100 μl of medium and were exposed to either DTIC or its derivative compounds at various concentrations up to 150 μg/ml for a period of three days. Vehicle control culture wells received only a maximum of 0.5% DMSO. Thereafter, 0.5 mg/ml of MTT reagent was added to each well and the microplate was incubated further for 4 h at 37° C. in presence of 5% CO2. Finally, the cells were solubilized by adding solubilizing solution and allowed to incubate at 37° C. overnight. After complete solubilization of the formazan crystals the absorbance was read at 540 nm in a microplate reader (BioRad, USA). The results (mean OD±SD) obtained from quadruplicate wells were used in calculation to determine the inhibition of cell proliferation (50% inhibitory concentration, IC50) of the test compounds.
For orientation: Tetrazolium dyes change colour on reduction, which living cells bring about.

The test system of assay [2] is B16F0 mouse melanoma cells. Nature of the assay: MTT cell proliferation assay in B16F0 cells. The following applies: B16F0, 72 h, 3 days, read-out: 50% of inhibitory concentration, IC50 in B16 F0 cells. The protocol:
as §1, with “Thereafter, 0.5 mg/ml of MTT reagent was added to each well and the microplate was incubated further for 4 h at 37° C. in presence of 5% CO2. Finally, the cells were solubilized by adding solubilizing solution and allowed to incubate at 37° C. overnight.” left out, “The results (mean OD±SD) obtained from quadruplicate wells were used in calculation to determine the inhibition of cell proliferation (50% inhibitory concentration, IC50) of the test compounds.” left out
The comparative anti-tumor growth potential of DTIC and Compound 6 was further tested in B16F0 mouse melanoma cells and A375 human melanoma cells by using MTT based cell proliferation assay following the methodology described earlier (Example 19). […] After adding the MTT reagent, the cells were solubilized and the intracellular formazan formation was calorimetrically read at 540 nm in a microplate reader (BioRad, USA). […]

Assay [3] deals with B16F0 mouse melanoma cells. Nature of the assay: LDH leakage cytotoxicity assay in B16F0 cells. Conditions: treatment concentration 100 μg/ml. The protocol: (§2) From the data obtained from the MTT assay (Table J), compound 1, compound 6 and compound 13 have been selected and their cytotoxicity potential has been further validated in LDH leakage assay. […] Cytotoxicity potential of DTIC and its derivative compounds were evaluated by measuring the leaked lactate dehydrogenase (LDH) into the culture supernatant (LDH Cytotoxicity Detection Roche Applied Sciences, Germany). The leaked LDH is directly proportional to the cell damage done by the cytotoxic compounds. In brief, cells were treated with test compounds at various concentrations and incubated for 48 h. Vehicle control culture wells received only a maximum of 0.5% DMSO. The cell free culture supernatants were mixed with catalyst and dye solution and allowed to incubate for 15 min at room temperature. Finally, the reaction was stopped and the optical density was measured at 492 nm in a microplate reader (BioRad, USA). […]
(§3) Comparative cytotoxicity potential of DTIC and Compound 6 on B16F0 mouse melanoma cells and A375 human melanoma cells were further evaluated by measuring the leaked lactate dehydrogenase (LDH) into the culture supernatant (LDH Cytotoxicity Detection Kit^Plus, Roche Applied Sciences, Germany), following the methodology described earlier (Example 20). […]
(In general: Release of lactate dehydrogenase indicates damage to the cell membrane.)

For assay [4], the system named is A375 human melanoma cells. Nature of the assay: LDH leakage cytotoxicity assay in A375 cells. The following applies: treatment concentration 100 μg/ml. The method, then: as §2, §3
The test system of assay [5] is MCF-7 human breast tumor cells. Nature of the assay: MTT cell proliferation assay in MCF-7 cells. Conditions: MCF7, read-out: 50% of inhibitory concentration, IC50 MCF-7. The method, then:
as §1
(§4) Anti-tumor growth potential of Compound 1 and Compound 6 were evaluated in MCF-7 human breast tumor cells, MIA-PaCa2 human pancreas tumor cells and DU145 human prostate tumor cells by using MTT based cell proliferation studies as described earlier (example 19). The results (mean OD±SD) obtained from quadruplicate wells were used in calculation to determine the inhibition of cell proliferation (50% of inhibitory concentration, IC50) of the test compounds (Table 4).

Assay [6] concerns MIA-PaCa2 human pancreas tumor cells. Nature of the assay: MTT cell proliferation assay in MIA-PaCa2 cells. The following applies: MIA PaCa-2, read-out: 50% of inhibitory concentration, IC50 MIA-PaCa2. The method, then: as §1, §4
Assay [7] deals with DU145 human prostate tumor cells. Nature of the assay: MTT cell proliferation assay in DU145 cells. The following applies: DU-145, read-out: 50% of inhibitory concentration, IC50 DU145. The method, then:
as §1, §4

In another assay the test system is B16F0 cells. Nature of the assay: B16 F0 mouse melanoma cell colony formation assay. The following applies: B16F0, 192 h, 8 days, read-out: B16 colony growth inhibition; for inhibition at 100 µg/mL: 100 μg/ml. The protocol:
Clone formation efficiency of the Compound 6 and DTIC was tested by following the procedure described earlier with some modifications (41). Briefly, B16F0 cells were harvested and seeded into 6-well plates (100 cells/ml). The cells were allowed to grow for 2 days and thereafter, the cells were incubated with DMEM containing either 0.1% DMSO or 100 μg/ml DTIC or 50 μg/ml and 100 μg/ml of Compound 6 for further 8 days. Fresh medium containing test agents was replaced at every 24 h. Finally, the wells were washed three times with PBS and fixed in methanol for 15 min. The cells were stained with Giemsa stain and observed under microscope. The image of the stained wells were captured digitally (Kodak Image Station 4000MM, Carestream Health Inc., New Haven, Conn.) and number of colonies were counted and analyzed by using NIH Image J software.

In assay [8] the test system is Human umbilical vein endothelial cells (HUVEC). Nature of the assay: In vitro capillary formation assay. The following applies: HUVEC on Cultrex, 16 hours. The method, then: In vitro capillary formation assay was performed with Human umbilical vein endothelial cells (HUVEC), cultured on 10 mg/ml basement membrane extract (BME-Cultrex®, R&D Systems, USA) bed. The protocol of in vitro endothelial tube formation assay was the same as described earlier with some modifications (44). Briefly, four hundred microliters of Cultrex was coated at 4° C. in each well of 24-well culture plate and allowed to gel at 37° C. for 1 h. HUVECs were plated at a density of 7.5×10^4 cells per well with […] of DMEM supplemented with 10% fetal bovine serum and 4.5 g/l D-glucose. The cells were then treated with either DTIC or Compound 6 at desired concentration as indicated for 16 hours. Vehicle control cultures received only 0.1% DMSO. Pictures were taken under a Nikon Eclipse TS 100 microscope equipped with a Nikon Coolpix camera.

Each structure is given as a SMILES string. ≈ marks a conversion by molar mass, not a printed value.

On to `CN(C)/N=N/c1ccsc1C(=O)O` [Compound 6, 3-[(dimethylamino)diazenyl]thiophene-2-carboxylic acid], for which the IC50 in [1] came out at 53.6 µg/mL (≈ 269 µM); in [2], 57.6 µg/mL (≈ 289 µM); in [5], 91.7 µg/mL (≈ 460 µM); in [6], 81.9 µg/mL (≈ 411 µM); in assay [7] it was 62.6 µg/mL (≈ 314 µM). In addition, in assay [3], the “% increase in LDH secretion with respect to vehicle treated control in B16 F0 cells” value stood at 61.5%. For the same compound, the “% increase in LDH secretion with respect to vehicle treated control in A375 cells” value in assay [4] is reported as 331%. The inhibition at 50 µg/mL with B16F0 cells (50 μg/ml) was found to be 55.2%. For the same compound, the inhibition at 100 µg/mL with B16F0 cells was 68.7%. In addition, the capillary formation result in [8] is on record as “inhibition of capillary formation in a dose dependent manner”.

Turning to `CN(C)/N=N/c1[nH]cnc1C(N)=O` [DTIC, 5-(3,3-dimethyl-1-trizeno)-imidazole-4-carboxamide, reference compound], the IC50 in [1] came to 68.1 µg/mL (≈ 374 µM); in assay [2] it was 360 µg/mL (≈ 1980 µM); in assay [5], 135 µg/mL (≈ 742 µM); in [6], 203 µg/mL (≈ 1110 µM); in assay [7], 87.2 µg/mL (≈ 479 µM). In assay [3], the “% increase in LDH secretion with respect to vehicle treated control in B16 F0 cells” value is given as 5.7%. Further, in assay [4], the “% increase in LDH secretion with respect to vehicle treated control in A375 cells” value came out at 246%. Moreover, the inhibition at 100 µg/mL in the assay on B16F0 cells was 37.6%. Besides, the capillary formation entry in [8] is “promoted capillary formation”.
